Key:
Format in all cases: cell-based
[1] = test system: MKN1 (PI3Kα E545K mutant) cells; experiment: Inhibition of pAKT formation, alphaLISA SureFire Ultra AKT 1/2/3 (pS473), MKN1 cells; details: Homo sapiens, MKN-1; MKN1 (PI3Kα E545K mutant) cells; inhibition of pAKT (pS473) formation; approximately one hour or 24 hours treatment; read-out: MKN1 (E545K) pAKT IC50
Procedure, shortened: (§1)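 Cells seeded in HBSS (SKBR3 12,000/well, MKN1 24,000/well) and dosed immediately, 10-point 1:4 series from […], for about 1 h or 24 h at 37 °C. pAKT S473 by alphaLISA after lysis; signal normalised to alpelisib and DMSO controls, IC50 by four-parameter fit.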

[2] = test system: MKN1 (PI3Kα E545K mutant) cells; experiment: CellTiter-Glo 2.0 luminescent cell viability assay, 72 hours, MKN1 cells; details: Homo sapiens, MKN-1; MKN1 (PI3Kα E545K mutant) cells, CellTiter-Glo, approximately 72 hours; read-out: MKN1 (E545K) Viability IC50
Procedure, shortened: (§2)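 Viability was measured by CellTiter-Glo 2.0 luminescence after approximately 72 h of compound exposure at 37° C. Plating was 1000 cells per well the day before dosing, with ten 1:4 dilutions from a 10 µM top concentration. Values as percent of vehicle were fitted by variable-slope log(inhibitor) regression to give IC50.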

[3] = test system: SKBR3 (PI3Kα wild type) cells; experiment: Inhibition of pAKT formation, alphaLISA SureFire Ultra AKT 1/2/3 (pS473), SKBR3 cells; details: Homo sapiens, SK-BR-3; Inhibition of pAKT in SKBR3 (PI3Kα wild type) cells; read-out: SKBR3 (WT) pAKT IC50 (nM) (H1047R mutant) IC50
Procedure, shortened: as §1

[4] = test system: SKBR3 (PI3Kα wild type) cells; experiment: CellTiter-Glo 2.0 luminescent cell viability assay, 72 hours, SKBR3 cells; details: Homo sapiens, SK-BR-3, 72 h, SKBR3 (PI3Kα wild type) cells, CellTiter-Glo, approximately 72 hours; read-out: SKBR3 (WT) Viability IC50
Procedure, shortened: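 Viability measured via CTG luminescence following roughly 72 hours of compound exposure at 37° C. Dosing used a 10 um starting concentration diluted 1:4 over 10 points; percent-of-vehicle data fitted with a variable-slope four-parameter model for IC50.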

[5] = test system: T47D (PI3Kα H1047R mutant) cells; experiment: CellTiter-Glo 2.0 luminescent cell viability assay, 72 hours, T47D cells; details: Homo sapiens, T47D, 72 h, T47D (PI3Kα H1047R mutant) cells, CellTiter-Glo, approximately 72 hours; read-out: T47D (H1047R mutant) Viability IC50
Procedure, shortened: as §2

[6] = test system: T47D (PI3Kα H1047R mutant) cells; experiment: Inhibition of pAKT formation, alphaLISA SureFire Ultra AKT 1/2/3 (pS473), T47D cells; details: Homo sapiens, T47D, T47D (PI3Kα H1047R mutant) cells; inhibition of pAKT (pS473) formation; approximately one hour or 24 hours treatment; read-out: T47D pAKT (H1047R mutant) IC50
Procedure, shortened: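 AKT Ser473 phosphorylation was quantified by alphaLISA SureFire Ultra after roughly 1 h or 24 h compound exposure at 37 °C. Cells were T47D (12,000/well in HBSS), treated with a 10-point 1:4 series starting at 10.4 μM. Percent of control used alpelisib background and DMSO reference, and IC50 came from four-parameter logistic fitting.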

Structure (SMILES)	IC50 [1]	IC50 [2]	IC50 [3]	IC50 [4]	IC50 [5]	IC50 [6]
Cc1cc(C(C)Nc2ccc(O)cc2C(=O)O)c2nc(N3CCCCC3)cc(=O)n2c1 (stereo not drawn) [Example 3-6, 5-hydroxy-2-((1-(7-methyl-4-oxo-2-(piperidin-1-yl)-4H-pyrido[1,2-a]pyrimidin-9-yl)ethyl)amino)benzoic acid]	> 10 µM	> 10 µM	2670 nM	> 10 µM	> 10 µM	> 10 µM
CC(Nc1ccccc1C(=O)O)c1cccn2c(=O)cc(N3CCC(C)(C)CC3)nc12 (stereo not drawn) [Example 9-2, 2-((1-(2-(4,4-dimethylpiperidin-1-yl)-4-oxo-4H-pyrido[1,2-a]pyrimidin-9-yl)ethyl)amino) benzoic acid]	> 10 µM	> 10 µM	> 10000 nM	> 10 µM	> 10 µM	0.0339 µM
Cc1cc(C(C)Nc2ccccc2C(O)C(F)(F)F)c2nc(N3CCCCC3)cc(=O)n2c1 (stereo not drawn) [Example 3-18, 7-methyl-2-(piperidin-1-yl)-9-(1-((2-(2,2,2-trifluoro-1-hydroxyethyl)phenyl)amino)ethyl)-4H-pyrido[1,2-a]pyrimidin-4-one]	> 10 µM	> 10 µM	> 10000 nM	> 10 µM	4.2 µM	1.39 µM
COC(=O)c1ccccc1NC(C)c1cc(C)cn2c(=O)cc(N3CCCCC3)nc12 (stereo not drawn) [Example 3-12, methyl 2-((1-(7-methyl-4-oxo-2-(piperidin-1-yl)-4H-pyrido[1,2-a]pyrimidin-9-yl)ethyl)amino)benzoate]	> 10 µM	> 10 µM	44.3 nM	> 10 µM	5.76 µM	1.97 µM

These reach a lower IC50 [1]. Values come first.

IC50 [1]	IC50 [2]	IC50 [3]	IC50 [4]	IC50 [5]	IC50 [6]	Structure (SMILES)
3.99 µM	> 10 µM	> 10000 nM	> 10 µM	> 10 µM	1.06 µM	Cc1cc(C(C)Nc2ccccc2C(N)=O)c2nc(N3CCCCC3)cc(=O)n2c1 (stereo not drawn) [Example 3-13, 2-((1-(7-methyl-4-oxo-2-(piperidin-1-yl)-4H-pyrido[1,2-a]pyrimidin-9-yl)ethyl)amino)benzamide]
0.271 µM	> 10 µM	4550 nM	> 10 µM	0.316 µM	0.0117 µM	Cc1cc([C@H](C)Nc2ccccc2C(=O)O)c2nc(N3Cc4ccccc4C3)c(C)c(=O)n2c1 (single isomer, unassigned) [Example 5-9-1]
5.54 µM	9.68 µM	932 nM	> 10 µM	0.166 µM	0.054 µM	Cc1cc(C(C)Nc2ccccc2C(=O)O)c2nc(N3CCCCC3)c(C#N)c(=O)n2c1 (stereo not drawn) [Example 8-1, 2-((1-(3-cyano-7-methyl-4-oxo-2-(piperidin-1-yl)-4H-pyrido[1,2-a]pyrimidin-9-yl)ethyl)amino)benzoic acid]

Reference: patent US20260078120A1, “SUBSTITUTED PYRIDOPYRIMIDINONES” (MIRATI THERAPEUTICS, INC., priority 2022, published 2026)
